Laboratory results: ChEMBL document CHEMBL1132137, “Synthesis and antiviral activity of some N-benzenesulphonylbenzimidazoles” (Bioorg Med Chem Lett, 1999)
In brackets after ≈: the same amount, converted by molar mass. Several values for one entry are separate records, joined by “and”; a condition that tells them apart may be missing. Equal entries are not always repeated.

How the values were obtained:
Human alphaherpesvirus 1 [1] = assay: Antiviral activity against the Herpes simplex 1 virus (DNA virus) at a concentration of 5 ug/mL was determined as Plaque forming unit/mL(PFU) by plaque assay; format: functional
Vero [2] = assay: (§1) Cytotoxicity on the vero cell culture infected with mL and was determined as reduction in protein content by the Lowry test; format: functional, Chlorocebus sabaeus; design: unit not given here
Mumps virus [3] = assay: Antiviral activity against the Mumps virus (RNA virus) at a concentration of 5 ug/mL was determined as total cell infectious dose 50/mL (TCID50) by viral yield assay; format: functional, Mumps orthorubulavirus
Coxsackievirus B5 [4] = assay: Antiviral activity against the Coxsackie B5 virus (RNA virus) at a concentration of 5 ug/mL was determined as total cell infectious dose 50/mL (TCID50) by viral yield assay; format: functional
Vero [5] = assay: as §1; format: functional, Chlorocebus sabaeus
Coxsackievirus B5 [6] = assay: Inhibitory concentration required to reduce viral plaque formation of Coxsackie B5 virus by 50%; format: functional, organism-based; conditions: Enterovirus B
Vero [7] = assay: Cytotoxicity on the vero cell culture infected with Coxsackie B5 virus at a concentration of 10 ug/mL was determined as cell viability by the MTT test; format: functional, Chlorocebus sabaeus
Vaccinia virus [8] = assay: Antiviral activity against the Vaccinia virus (DNA virus) at a concentration of 5 ug/mL was determined as Plaque forming unit/mL(PFU) by plaque assay; format: functional, Orthopoxvirus vaccinia
Vero [9] = assay: Cytotoxicity on the vero cell culture infected with Coxsackie B5 virus at a concentration of 4 ug/mL was determined as cell viability by the MTT test; format: functional, Chlorocebus sabaeus
Vero [10] = assay: Cytotoxicity on the vero cell culture infected with Coxsackie B5 virus at a concentration of 2 ug/mL was determined as cell viability by the MTT test; format: functional, Chlorocebus sabaeus
Coxsackievirus B5 [11] = assay: Antiviral activity against the Coxsackie B5 virus (RNA virus) at a concentration of 4 ug/mL was determined as total cell infectious dose 50/mL (TCID50) by viral yield assay; format: functional
Vero [12] = assay: as §1; format: functional, Chlorocebus sabaeus; remark: listed apart in the source
Vero [13] = assay: Cytotoxicity on the vero cell culture infected with Coxsackie B5 virus at a concentration of 3 ug/mL was determined as cell viability by the MTT test; format: functional, Chlorocebus sabaeus
Vero [14] = assay: Cytotoxicity on the vero cell culture infected with Coxsackie B5 virus at a concentration of 5 ug/mL was determined as cell viability by the MTT test; format: functional, Chlorocebus sabaeus
Coxsackievirus B5 [15] = assay: Antiviral activity against the Coxsackie B5 virus (RNA virus) at a concentration of 3 ug/mL was determined as total cell infectious dose 50/mL (TCID50) by viral yield assay; format: functional
Vero [16] = assay: as §1; format: functional, Chlorocebus sabaeus; design: unit not given here; remark: listed apart in the source
Coxsackievirus B5 [17] = assay: Antiviral activity against the Coxsackie B5 virus (RNA virus) at a concentration of 2 ug/mL was determined as total cell infectious dose 50/mL (TCID50) by viral yield assay; format: functional
Vero [18] = assay: Cytotoxicity on the vero cell culture infected with Coxsackie B5 virus at a concentration of 1 ug/mL was determined as cell viability by the MTT test; format: functional, Chlorocebus sabaeus
Vero [19] = assay: as §1; format: functional, Chlorocebus sabaeus; remark: listed apart in the source
Mumps virus [20] = assay: Antiviral activity against the Mumps virus (RNA virus) at a concentration of 2 ug/mL was determined as total cell infectious dose 50/mL (TCID50) by viral yield assay; format: functional, Mumps orthorubulavirus
Human alphaherpesvirus 1 [21] = assay: Antiviral activity against the Herpes simplex 1 virus (DNA virus) at a concentration of 2 ug/mL was determined as Plaque forming unit/mL(PFU) by plaque assay; format: functional
Vaccinia virus [22] = assay: Antiviral activity against the Vaccinia virus (DNA virus) at a concentration of 2 ug/mL was determined as Plaque forming unit/mL(PFU) by plaque assay; format: functional, Orthopoxvirus vaccinia
Coxsackievirus B5 [23] = assay: Antiviral activity against the Coxsackie B5 virus (RNA virus) at a concentration of 80 ug/mL was determined as total cell infectious dose 50/mL (TCID50) by viral yield assay; format: functional
Vero [24] = assay: Cytotoxicity on the vero cell culture infected with Coxsackie B5 virus at a concentration of 80 ug/mL was determined as cell viability by the MTT test; format: functional, Chlorocebus sabaeus

Compound | Cytotoxicity (Vero [2]) | Cytotoxicity (Vero [5]) | Cell viability (Vero [10]) | Cell viability (Vero [13]) | Cell viability (Vero [14]) | TCID50 (Coxsackievirus B5 [15]) [mL⁻¹] | Cytotoxicity (Vero [16]) | also measured
O=[N+]([O-])c1ccccc1S(=O)(=O)n1c(CCc2ccccn2)nc2ccccc21 | 759.5 | 627.8 |  |  |  |  |  | Activity (Human alphaherpesvirus 1 [1]): 1800000 pfu/ml; TCID50 (Mumps virus [3]): 10000 mL⁻¹; TCID50 (Coxsackievirus B5 [4]): 100000 mL⁻¹; IC50 (Coxsackievirus B5 [6]): 5 µg/mL (≈ 12.2 µM); Cell viability (Vero [7]): 0.82 and 1.23; Activity (Vaccinia virus [8]): 750 pfu/ml
O=[N+]([O-])c1ccc(S(=O)(=O)n2c(SCc3ccccn3)nc3ccccc32)cc1 |  | 744.3 | 1.44 |  |  |  |  | Cell viability (Vero [9]): 1.12; TCID50 (Coxsackievirus B5 [11]): 1000000 mL⁻¹; Cytotoxicity (Vero [12]): 734.2
O=[N+]([O-])c1ccc(S(=O)(=O)n2c(Sc3ncccc3[N+](=O)[O-])nc3ccccc32)cc1 | 508.9 |  |  | 1.36 | 0.8 | 10000000 | 678.6 | 
O=[N+]([O-])c1ccccc1S(=O)(=O)n1c(SCc2ccccn2)nc2ccccc21 |  | 724.1 | 1.02 |  |  |  |  | TCID50 (Coxsackievirus B5 [17]): 10000000 mL⁻¹; Cell viability (Vero [18]): 1.42; Cytotoxicity (Vero [19]): 774.7
O=[N+]([O-])c1ccccc1S(=O)(=O)n1c(CCc2ccccn2)nc2cc(Cl)c(Cl)cc21 |  | 784.8 | 1.36 |  |  |  |  | TCID50 (Coxsackievirus B5 [17]): 1000000 mL⁻¹; TCID50 (Mumps virus [20]): 100000 mL⁻¹; Activity (Human alphaherpesvirus 1 [21]): 4700000 pfu/ml; Cell viability (Vero [18]): 1.49; Cytotoxicity (Vero [19]): 840.5; Activity (Vaccinia virus [22]): 120 pfu/ml; IC50 (Coxsackievirus B5 [6]): 8 µg/mL (≈ 16.8 µM)
O=[N+]([O-])c1ccc(S(=O)(=O)n2c(Sc3ncccc3[N+](=O)[O-])nc3cc(Cl)c(Cl)cc32)cc1 | 456.1 |  |  | 1.27 | 0.79 | 1000000 | 595.6 | 
N=C(N)N [GUANIDINE] |  | 825.7 |  | 1.45 |  | 1000000 | 839.4 | TCID50 (Coxsackievirus B5 [23]): 10000 mL⁻¹; Cell viability (Vero [24]): 1.41
O=[N+]([O-])c1ccccc1S(=O)(=O)n1c(SCc2ccccn2)nc2cc(Cl)c(Cl)cc21 | 495.8 |  |  | 1.12 | 0.83 | 10000000 | 740.1 | 
O=[N+]([O-])c1ccc(S(=O)(=O)n2c(SCc3ccccn3)nc3cc(Cl)c(Cl)cc32)cc1 | 540.8 |  |  | 1.23 | 0.89 | 1000000 | 663.4 | 
